Laboratory results: ChEMBL document CHEMBL5715260, “Selectivity Literature for EUbOPEN Chemogenomic Library” (2024)
Each block holds one molecule with its values, some of them ahead of it.

Legend:
[1] = biological target: Nuclear receptor subfamily 4immunitygroup A member 1 (Homo sapiens) (UniProt P22736); test: Selectivity interaction (Reporter gene assay) EUB0001156a NR4A1; set-up: recommended concentration 1 uM
[2] = biological target: T1, Retinoic acid receptor RXR-alpha (Homo sapiens) (UniProt P19793); test: Selectivity interaction (Reporter gene assay) EUB0001156a RXRA; set-up: recommended concentration 1 uM; settings: reference bexarotene 1 uM, Selectivity number of off-targets 0.0, Selectivity number of targets 1.0, Source Knowledge inhouse
T1 sequence (whole entry): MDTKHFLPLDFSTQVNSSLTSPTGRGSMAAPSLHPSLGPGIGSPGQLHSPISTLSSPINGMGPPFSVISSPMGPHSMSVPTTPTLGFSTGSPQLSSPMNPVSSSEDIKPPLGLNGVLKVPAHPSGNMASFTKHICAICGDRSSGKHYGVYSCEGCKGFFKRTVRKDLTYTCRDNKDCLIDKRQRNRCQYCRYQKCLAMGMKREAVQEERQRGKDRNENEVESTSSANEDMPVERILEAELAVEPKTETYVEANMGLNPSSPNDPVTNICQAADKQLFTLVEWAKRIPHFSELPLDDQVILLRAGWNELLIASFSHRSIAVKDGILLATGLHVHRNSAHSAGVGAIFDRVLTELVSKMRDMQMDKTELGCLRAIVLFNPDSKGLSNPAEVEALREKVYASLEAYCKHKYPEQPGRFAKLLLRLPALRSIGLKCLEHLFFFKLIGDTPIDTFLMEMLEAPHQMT

[3] = biological target: T2, Alpha trans-inducing protein (Human alphaherpesvirus 1) (UniProt A0A5J6DW59); test: Selectivity interaction (Reporter gene assay) EUB0001156a UL48; set-up: recommended concentration 1 uM; settings: screened at recom. conc., Selectivity number of off-targets 0.0, Selectivity number of targets 1.0, Source Knowledge inhouse
T2 sequence (A0A5J6DW59 as listed by the source): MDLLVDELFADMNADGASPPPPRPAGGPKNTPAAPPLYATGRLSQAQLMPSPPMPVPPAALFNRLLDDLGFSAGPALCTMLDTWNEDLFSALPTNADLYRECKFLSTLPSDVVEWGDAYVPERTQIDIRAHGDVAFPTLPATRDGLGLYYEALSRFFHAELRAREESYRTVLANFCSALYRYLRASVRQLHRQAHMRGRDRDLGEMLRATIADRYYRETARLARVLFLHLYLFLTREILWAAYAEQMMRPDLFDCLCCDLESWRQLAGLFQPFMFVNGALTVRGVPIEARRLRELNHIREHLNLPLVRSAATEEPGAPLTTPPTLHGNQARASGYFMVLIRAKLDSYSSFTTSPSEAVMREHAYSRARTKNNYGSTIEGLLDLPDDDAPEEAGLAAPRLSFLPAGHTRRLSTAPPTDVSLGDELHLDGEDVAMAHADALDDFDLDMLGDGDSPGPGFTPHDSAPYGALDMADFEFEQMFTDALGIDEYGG

[4] = biological target: Nuclear receptor subfamily 2 group E member 1 (Homo sapiens) (UniProt Q9Y466); test: Selectivity interaction (Reporter gene assay) EUB0001156a NR2E1; set-up: recommended concentration 1 uM
Chain of Nuclear receptor subfamily 2 group E member 1 (Homo sapiens) (Q9Y466 whole entry): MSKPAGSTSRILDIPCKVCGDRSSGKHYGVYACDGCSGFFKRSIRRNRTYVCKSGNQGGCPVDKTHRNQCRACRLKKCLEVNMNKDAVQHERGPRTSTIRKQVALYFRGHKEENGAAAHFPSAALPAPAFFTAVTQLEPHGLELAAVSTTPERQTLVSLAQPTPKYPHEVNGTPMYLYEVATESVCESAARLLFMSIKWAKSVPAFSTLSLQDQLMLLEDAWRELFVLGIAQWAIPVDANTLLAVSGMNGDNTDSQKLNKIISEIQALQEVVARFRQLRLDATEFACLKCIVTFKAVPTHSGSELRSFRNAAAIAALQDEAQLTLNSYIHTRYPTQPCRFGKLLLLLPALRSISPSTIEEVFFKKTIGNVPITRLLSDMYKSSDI

[5] = biological target: Steroidogenic factor 1 (Homo sapiens) (UniProt Q13285); test: Selectivity interaction (Reporter gene assay) EUB0001156a NR5A1; set-up: recommended concentration 1 uM
Chain of Steroidogenic factor 1 (Homo sapiens) (Q13285 whole entry): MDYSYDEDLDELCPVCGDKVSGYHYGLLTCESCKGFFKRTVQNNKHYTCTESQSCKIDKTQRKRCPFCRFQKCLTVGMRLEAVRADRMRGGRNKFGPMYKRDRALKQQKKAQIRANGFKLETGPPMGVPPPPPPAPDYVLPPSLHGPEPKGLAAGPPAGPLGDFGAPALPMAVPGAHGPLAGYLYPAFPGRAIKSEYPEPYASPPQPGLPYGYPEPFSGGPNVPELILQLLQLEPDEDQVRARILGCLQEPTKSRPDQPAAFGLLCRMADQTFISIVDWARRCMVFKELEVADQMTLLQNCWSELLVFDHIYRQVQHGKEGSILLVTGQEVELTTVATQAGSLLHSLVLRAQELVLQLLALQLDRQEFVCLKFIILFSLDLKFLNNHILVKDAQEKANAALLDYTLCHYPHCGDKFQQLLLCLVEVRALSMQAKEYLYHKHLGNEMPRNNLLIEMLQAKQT

[6] = biological target: T3, Hepatocyte nuclear factor 4-alpha (Homo sapiens) (UniProt P41235); test: Selectivity interaction (Reporter gene assay) EUB0001156a HNF4A; set-up: recommended concentration 1 uM
T3 sequence (whole entry): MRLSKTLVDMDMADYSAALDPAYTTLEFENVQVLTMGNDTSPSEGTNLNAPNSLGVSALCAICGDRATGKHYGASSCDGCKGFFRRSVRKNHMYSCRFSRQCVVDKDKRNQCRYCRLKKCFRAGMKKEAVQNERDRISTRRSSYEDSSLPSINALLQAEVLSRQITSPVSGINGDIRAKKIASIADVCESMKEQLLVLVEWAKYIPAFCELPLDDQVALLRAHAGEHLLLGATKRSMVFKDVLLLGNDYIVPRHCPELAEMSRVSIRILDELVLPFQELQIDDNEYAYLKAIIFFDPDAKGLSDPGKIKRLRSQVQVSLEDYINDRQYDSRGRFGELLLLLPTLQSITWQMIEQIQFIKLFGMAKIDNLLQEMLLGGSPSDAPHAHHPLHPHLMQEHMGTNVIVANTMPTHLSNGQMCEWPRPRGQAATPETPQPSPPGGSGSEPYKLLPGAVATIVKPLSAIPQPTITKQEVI

[7] = biological target: T4, Nuclear receptor subfamily 2 group C member 1 (Homo sapiens) (UniProt P13056); test: Selectivity interaction (Reporter gene assay) EUB0001156a NR2C1; set-up: recommended concentration 1 uM
T4 sequence (whole entry): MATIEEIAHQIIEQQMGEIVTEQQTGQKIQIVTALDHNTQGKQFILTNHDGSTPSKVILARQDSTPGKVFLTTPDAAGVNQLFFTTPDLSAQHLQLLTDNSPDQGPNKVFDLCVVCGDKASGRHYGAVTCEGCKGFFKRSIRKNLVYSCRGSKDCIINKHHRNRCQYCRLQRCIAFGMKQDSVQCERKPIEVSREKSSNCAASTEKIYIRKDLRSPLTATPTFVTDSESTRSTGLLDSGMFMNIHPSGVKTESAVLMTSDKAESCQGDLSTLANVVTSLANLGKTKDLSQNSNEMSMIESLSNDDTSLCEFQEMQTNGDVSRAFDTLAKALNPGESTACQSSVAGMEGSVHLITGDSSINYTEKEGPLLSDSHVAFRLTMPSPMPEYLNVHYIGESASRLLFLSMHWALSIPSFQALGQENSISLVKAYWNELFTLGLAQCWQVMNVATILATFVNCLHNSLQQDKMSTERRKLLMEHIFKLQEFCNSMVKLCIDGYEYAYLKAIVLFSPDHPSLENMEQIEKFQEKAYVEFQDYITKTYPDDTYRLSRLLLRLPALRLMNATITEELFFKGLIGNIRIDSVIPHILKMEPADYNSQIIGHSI

[8] = biological target: T2, Alpha trans-inducing protein (Human alphaherpesvirus 1); test: Selectivity interaction (Reporter gene assay) EUB0001147a UL48; set-up: recommended concentration 1 uM
[9] = biological target: T3, Hepatocyte nuclear factor 4-alpha (Homo sapiens); test: Selectivity interaction (Reporter gene assay) EUB0001147a HNF4A; set-up: recommended concentration 1 uM
[10] = biological target: Steroidogenic factor 1 (Homo sapiens) (UniProt Q13285); test: Selectivity interaction (Reporter gene assay) EUB0001147a NR5A1; set-up: recommended concentration 1 uM
[11] = biological target: Nuclear receptor subfamily 2 group E member 1 (Homo sapiens) (UniProt Q9Y466); test: Selectivity interaction (Reporter gene assay) EUB0001147a NR2E1; set-up: recommended concentration 1 uM
[12] = biological target: T4, Nuclear receptor subfamily 2 group C member 1 (Homo sapiens); test: Selectivity interaction (Reporter gene assay) EUB0001147a NR2C1; set-up: recommended concentration 1 uM
[13] = biological target: T1, Retinoic acid receptor RXR-alpha (Homo sapiens); test: Selectivity interaction (Reporter gene assay) EUB0001147a RXRA; set-up: recommended concentration 1 uM; settings: reference bexarotene 1 uM, Selectivity number of off-targets 0.0, Selectivity number of targets 1.0, Source Knowledge inhouse
[14] = biological target: Nuclear receptor subfamily 4immunitygroup A member 1 (Homo sapiens) (UniProt P22736); test: Selectivity interaction (Reporter gene assay) EUB0001147a NR4A1; set-up: recommended concentration 1 uM
[15] = biological target: Peroxisome proliferator-activated receptor alpha (Homo sapiens) (UniProt Q07869); test: Selectivity interaction (Reporter gene assay) EUB0001149a PPARA; set-up: recommended concentration 1 uM; settings: screened at recom. conc., Selectivity number of off-targets 1.0, Selectivity number of targets 19.0, Source Knowledge inhouse
Chain of Peroxisome proliferator-activated receptor alpha (Homo sapiens) (Q07869 whole entry): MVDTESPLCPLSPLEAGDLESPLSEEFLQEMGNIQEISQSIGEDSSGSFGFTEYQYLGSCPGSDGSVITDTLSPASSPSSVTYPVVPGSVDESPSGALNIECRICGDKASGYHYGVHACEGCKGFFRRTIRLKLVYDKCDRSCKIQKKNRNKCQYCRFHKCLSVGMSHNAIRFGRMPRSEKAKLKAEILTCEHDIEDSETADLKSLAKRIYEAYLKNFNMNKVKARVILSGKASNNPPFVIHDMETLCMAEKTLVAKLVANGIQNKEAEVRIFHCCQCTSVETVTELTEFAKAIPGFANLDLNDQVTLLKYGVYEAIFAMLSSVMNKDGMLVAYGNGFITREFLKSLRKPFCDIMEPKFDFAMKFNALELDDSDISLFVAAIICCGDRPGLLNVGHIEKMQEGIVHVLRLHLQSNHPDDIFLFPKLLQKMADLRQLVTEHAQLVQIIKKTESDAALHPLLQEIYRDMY

[16] = biological target: T4, Nuclear receptor subfamily 2 group C member 1 (Homo sapiens); test: Selectivity interaction (Reporter gene assay) EUB0001149a NR2C1; set-up: recommended concentration 1 uM
[17] = biological target: Nuclear receptor subfamily 4immunitygroup A member 1 (Homo sapiens) (UniProt P22736); test: Selectivity interaction (Reporter gene assay) EUB0001149a NR4A1; set-up: recommended concentration 1 uM
[18] = biological target: T2, Alpha trans-inducing protein (Human alphaherpesvirus 1); test: Selectivity interaction (Reporter gene assay) EUB0001149a UL48; set-up: recommended concentration 1 uM
[19] = biological target: Steroidogenic factor 1 (Homo sapiens) (UniProt Q13285); test: Selectivity interaction (Reporter gene assay) EUB0001149a NR5A1; set-up: recommended concentration 1 uM
[20] = biological target: T1, Retinoic acid receptor RXR-alpha (Homo sapiens); test: Selectivity interaction (Reporter gene assay) EUB0001149a RXRA; set-up: recommended concentration 1 uM; settings: reference bexarotene 1 uM, Selectivity number of off-targets 0.0, Selectivity number of targets 1.0, Source Knowledge inhouse
[21] = biological target: Nuclear receptor subfamily 2 group E member 1 (Homo sapiens) (UniProt Q9Y466); test: Selectivity interaction (Reporter gene assay) EUB0001149a NR2E1; set-up: recommended concentration 1 uM
[22] = biological target: T3, Hepatocyte nuclear factor 4-alpha (Homo sapiens); test: Selectivity interaction (Reporter gene assay) EUB0001149a HNF4A; set-up: recommended concentration 1 uM
[23] = biological target: T2, Alpha trans-inducing protein (Human alphaherpesvirus 1); test: Selectivity interaction (Reporter gene assay) EUB0001155a UL48; set-up: recommended concentration 10 uM
[24] = biological target: Steroidogenic factor 1 (Homo sapiens) (UniProt Q13285); test: Selectivity interaction (Reporter gene assay) EUB0001155a NR5A1; set-up: recommended concentration 10 uM
[25] = biological target: T3, Hepatocyte nuclear factor 4-alpha (Homo sapiens); test: Selectivity interaction (Reporter gene assay) EUB0001155a HNF4A; set-up: recommended concentration 10 uM
[26] = biological target: T1, Retinoic acid receptor RXR-alpha (Homo sapiens); test: Selectivity interaction (Reporter gene assay) EUB0001155a RXRA; set-up: recommended concentration 10 uM; settings: reference bexarotene 1 uM, Selectivity number of off-targets 0.0, Selectivity number of targets 1.0, Source Knowledge inhouse
[27] = biological target: T4, Nuclear receptor subfamily 2 group C member 1 (Homo sapiens); test: Selectivity interaction (Reporter gene assay) EUB0001155a NR2C1; set-up: recommended concentration 10 uM; settings: screened at recom. conc., Selectivity number of off-targets 2.0, Selectivity number of targets 5.0, Source Knowledge inhouse
[28] = biological target: Nuclear receptor subfamily 2 group E member 1 (Homo sapiens) (UniProt Q9Y466); test: Selectivity interaction (Reporter gene assay) EUB0001155a NR2E1; set-up: recommended concentration 10 uM; settings: screened at recom. conc., Selectivity number of off-targets 2.0, Selectivity number of targets 5.0, Source Knowledge inhouse
[29] = biological target: Nuclear receptor subfamily 4immunitygroup A member 1 (Homo sapiens) (UniProt P22736); test: Selectivity interaction (Reporter gene assay) EUB0001155a NR4A1; set-up: recommended concentration 10 uM
[30] = biological target: T4, Nuclear receptor subfamily 2 group C member 1 (Homo sapiens); test: Selectivity interaction (Reporter gene assay) EUB0001151a NR2C1; set-up: recommended concentration 1 uM
[31] = biological target: T1, Retinoic acid receptor RXR-alpha (Homo sapiens); test: Selectivity interaction (Reporter gene assay) EUB0001151a RXRA; set-up: recommended concentration 1 uM; settings: reference bexarotene 1 uM, Selectivity number of off-targets 0.0, Selectivity number of targets 1.0, Source Knowledge inhouse
[32] = biological target: T2, Alpha trans-inducing protein (Human alphaherpesvirus 1); test: Selectivity interaction (Reporter gene assay) EUB0001151a UL48; set-up: recommended concentration 1 uM
[33] = biological target: Nuclear receptor subfamily 4immunitygroup A member 1 (Homo sapiens) (UniProt P22736); test: Selectivity interaction (Reporter gene assay) EUB0001151a NR4A1; set-up: recommended concentration 1 uM
[34] = biological target: Steroidogenic factor 1 (Homo sapiens) (UniProt Q13285); test: Selectivity interaction (Reporter gene assay) EUB0001151a NR5A1; set-up: recommended concentration 1 uM
[35] = biological target: Nuclear receptor subfamily 2 group E member 1 (Homo sapiens) (UniProt Q9Y466); test: Selectivity interaction (Reporter gene assay) EUB0001151a NR2E1; set-up: recommended concentration 1 uM
[36] = biological target: T3, Hepatocyte nuclear factor 4-alpha (Homo sapiens); test: Selectivity interaction (Reporter gene assay) EUB0001151a HNF4A; set-up: recommended concentration 1 uM
[37] = biological target: T5, Peroxisome proliferator-activated receptor gamma (Homo sapiens) (UniProt P37231); test: Selectivity interaction (Reporter gene assay) EUB0001151a PPARG; set-up: recommended concentration 1 uM; settings: screened at recom. conc., Selectivity number of off-targets 1.0, Selectivity number of targets 19.0, Source Knowledge inhouse
T5 sequence (whole entry): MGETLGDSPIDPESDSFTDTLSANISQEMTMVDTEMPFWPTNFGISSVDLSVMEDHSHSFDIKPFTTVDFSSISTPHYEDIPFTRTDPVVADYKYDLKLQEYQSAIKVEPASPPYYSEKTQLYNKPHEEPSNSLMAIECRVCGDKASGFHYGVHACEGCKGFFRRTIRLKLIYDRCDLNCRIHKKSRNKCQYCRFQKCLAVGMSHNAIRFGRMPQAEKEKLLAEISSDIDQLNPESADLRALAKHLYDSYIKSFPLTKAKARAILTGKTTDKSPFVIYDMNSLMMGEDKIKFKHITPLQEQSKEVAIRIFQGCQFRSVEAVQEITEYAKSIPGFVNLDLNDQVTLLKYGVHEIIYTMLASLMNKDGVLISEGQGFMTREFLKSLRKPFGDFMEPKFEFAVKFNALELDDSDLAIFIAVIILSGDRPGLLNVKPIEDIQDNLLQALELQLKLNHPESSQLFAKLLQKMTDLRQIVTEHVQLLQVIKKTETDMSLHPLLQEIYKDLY

Chain of Nuclear receptor subfamily 4immunitygroup A member 1 (Homo sapiens) (P22736 whole entry): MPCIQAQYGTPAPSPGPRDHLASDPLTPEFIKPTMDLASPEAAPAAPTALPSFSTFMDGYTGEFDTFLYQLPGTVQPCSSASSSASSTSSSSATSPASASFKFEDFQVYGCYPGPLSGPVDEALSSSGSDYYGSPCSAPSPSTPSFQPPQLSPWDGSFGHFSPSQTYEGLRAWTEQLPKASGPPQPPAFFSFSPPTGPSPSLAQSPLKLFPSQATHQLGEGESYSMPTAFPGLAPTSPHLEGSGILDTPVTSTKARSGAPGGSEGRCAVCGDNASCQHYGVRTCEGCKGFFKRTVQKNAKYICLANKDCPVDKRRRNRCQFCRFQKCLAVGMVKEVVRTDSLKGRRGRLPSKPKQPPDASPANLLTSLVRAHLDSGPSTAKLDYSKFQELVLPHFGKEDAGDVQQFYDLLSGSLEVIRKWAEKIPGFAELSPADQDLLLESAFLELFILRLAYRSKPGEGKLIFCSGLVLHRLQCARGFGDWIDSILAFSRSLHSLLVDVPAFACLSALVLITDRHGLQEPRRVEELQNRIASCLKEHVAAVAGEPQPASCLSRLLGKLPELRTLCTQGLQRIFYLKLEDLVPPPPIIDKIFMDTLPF

SMILES: O=C(Nc1ccc(C(O)(C(F)(F)F)C(F)(F)F)cc1)c1ccc(C(F)(F)F)cc1
Remaining activity [1]: 0.858 | Relative activation [2]: 0.302% | P-value [3]: 0.167 | Remaining activity [4]: 0.903 | Fold activation [5]: 1.1 | Fold activation [6]: 1.11 | Fold activation [7]: 1.1

SMILES: CSc1ccc(C(=O)/C=C/c2cc(C)c(OC(C)(C)C(=O)O)c(C)c2)cc1
P-value [8]: 6.06e-07 | Remaining activity [9]: 0.852 | Remaining activity [10]: 0.871 | Fold activation [11]: 1.11 | Fold activation [12]: 1.41 | Relative activation [13]: 0.86% | Fold activation [14]: 1.25

SMILES: O=C(NCCS(=O)(=O)c1ccc(C(F)(F)F)cn1)c1ccc(Cl)cc1
Fold activation [30]: 1.39 | Relative activation [31]: 0.596% | P-value [32]: 0.0023 | Fold activation [33]: 1.27 | Remaining activity [34]: 0.9 | Fold activation [35]: 1.11 | Fold activation [36]: 1.25 | Remaining activity [37]: 0.832

Next, values leading:

Fold activation [15]: 5.01 | Remaining activity [16]: 0.743 | Fold activation [17]: 1.09 | P-value [18]: 0.0075 | Fold activation [19]: 1.16 | Relative activation [20]: 1.07% | Remaining activity [21]: 0.755 | Fold activation [22]: 1.19
SMILES: O=C(O)CCCc1cc2cc(Cl)ccc2n1S(=O)(=O)c1ccc2ncsc2c1

P-value [23]: 1.75e-05 | Fold activation [24]: 1.16 | Remaining activity [25]: 0.711 | Relative activation [26]: 0.1% | Remaining activity [27]: 0.487 | Remaining activity [28]: 0.483 | Fold activation [29]: 1.24
SMILES: CCCCCNC(=O)N1CCC(CN(Cc2ccc(Cl)cc2)Cc2ccc([N+](=O)[O-])s2)C1 (configuration not stated)
